The test system of experiment [1] is L. donovani. Description: In vitro antileishmanial activity in primary mouse macrophages, L. donovani. In kind it is cell-based. Particulars: Leishmania donovani, Macrophage, L. donovani (visceral). The procedure: (§1) Methods for the in vitro growth of Leishmania organisms and screening methodology are well documented in the international literature. Testing protocols are flexible and may be adapted according to the specific objectives and the characteristics of the test compounds. Briefly, the following in vitro methodology has been used: Primary peritoneal macrophages derived from laboratory rodents or macrophage cell lines were seeded in multiwell tissue culture vessels and allowed to attach for about 24 hours. Amastigotes of the Leishmania species (obtained from target tissues of an infected donor animal or from amastigote-infected tissue cultures) or promastigotes of the Leishmania species were added at an appropriate infection ratio together with varying serially diluted concentrations of the drug or test compound. […] Treatment of uninfected control cultures was also included in order to determine a selectivity index. Reference drug treated cultures were included as well so as to determine the relative potency of the test drug. Drug activity was determined in stained preparations as the percentage reduction of the total parasite load or the number of infected macrophages compared to the untreated control cultures.

The next experiment has as its system L. infantum. Briefly: In vitro antileishmanial activity in macrophages, L. infantum. It counts as cell-based. Particulars: Leishmania infantum, Macrophage; L. infantum (visceral), primary mouse macrophages. The procedure:
as §1

Experiment [2] concerns L. mexicana. Description: In vitro antileishmanial activity in primary mouse macrophages, L. mexicana. In kind it is cell-based. Particulars: Leishmania mexicana, Macrophage, L. mexicana (cutaneous). The procedure: as §1
In experiment [3] the test system is L. major. Briefly: In vitro antileishmanial activity in primary mouse macrophages, L. major. In kind it is cell-based. Particulars: Leishmania major, Macrophage, L. major (cutaneous). The procedure:
as §1

Experiment [4] deals with L. mexicana. Description: In vivo skin lesion model, L. mexicana (prophylactic and curative). The arrangement: species or system mice and hamsters. The conditions noted are these: L. mexicana proph., 10 mg/kg. An excerpt:
(§2) Methods for in vivo maintenance of Leishmania organisms and animals models are well documented in the international literature. Balb-C mice and golden hamsters are the preferred laboratory animal species for primary isolation, maintenance and use in artificial infection models. Testing protocols are flexible and may be adapted according to the specific objectives and characteristics of the test compounds. Briefly, the following in vivo methodologies have been used:
(§3) For cutaneous and mucocutaneous Leishmania species:Balb-C mice or young hamsters were infected intradermally or subcutaneously with about 10^6 to 10^7 amastigotes derived from the target organs (generally skin lesion) of an infected donor animal or from an in vitro culture of parasite forms. The animals were treated with the test compound at different dose levels (mg/kg in 100% DMSO or any other acceptable vehicle), using different routes of administration and treatment schedules. Initiation of treatment was either before infection (prophylactically) or at different times after infection (curatively). In the prophylactic study design, the first administration of the test drug is given immediately before or together with the artificial infection with the Leishmania species. In the curative study design, the first administration of the test drug is given several weeks after the artificial infection with the Leishmania species (early curative=when the first dermal lesions appear; late curative=when dermal lesions are well established or become chronic). Drug activity was evaluated either by determination of the severity of the lesion in the relevant target tissue/organ (primary parameter) or of the parasite burdens in the relevant target tissue/organ (secondary parameter), compared to untreated control animals. The lesion size was assessed quantitatively using the method of J. El-On. and A. D. Hamburger [Trans. Roy. Soc. Trop. Med. Hyg., 81, 734-737 (1987)]. The percentage reduction serves as an indication for antileishmanial activity and provides significant leads for clinically useful agents. The lowest active dose (LAD) is defined as the lowest dose which prevents lesions to develop, stops further evolution of the lesions or induces a clinical cure of the lesions in the primary target organ or tissue.

Experiment [5] relates to L. major. Briefly: In vivo skin lesion model, L. major (prophylactic and curative). The arrangement: species or system mice and hamsters. The conditions noted are these: L. major proph., 10 mg/kg.
Text: as §2, §3

Experiment [6] deals with L. panamensis. Description: In vivo skin lesion model, L. panamensis (prophylactic and curative). The arrangement: species or system mice and hamsters. Particulars: L. panamensis proph., 10 mg/kg.
Text: as §2, §3

Experiment [7] has as its system L. donovani. Briefly: Lowest active dose regimen in Balb-C mice, L. donovani. In kind it is in vivo. Particulars: no regimen given.
Text: as §2
For visceral Leishmania species: Balb-C mice or young hamsters were intravenously infected with about 10^6 to 10^7 amastigotes derived from the target organs (generally spleen) of an infected donor animal or from an in vitro culture of parasite forms. The animals were treated with the test compound at different dose levels (dose range: 0.1 to 80 mg/kg in 100% DMSO or any other acceptable vehicle), using different routes of administration and treatment schedules. Initiation of treatment was either at different times after infection (curatively), concomitant with infection (prophylactically) or before infection (residual activity). In the prophylactic study design, the first administration of the test drug is given immediately before or together with the artificial infection with the Leishmania species. In the curative study design, the first administration of the test drug is given several weeks after the artificial infection with the Leishmania species (early curative=when the first clinical signs appear; late curative=when the clinical symptoms are well established or become chronic). Drug activity was evaluated by determination of the total parasite burdens in the liver or any other relevant target tissue/organ, compared to the tissue/organ burdens in untreated control animals. The mean number of amastigotes is enumerated quantitatively or semi-quantitatively on stained impression smears or slides. The percentage reduction serves as an indication for antileishmanial activity and provides significant leads for clinically useful agents. […]

The next experiment has as its system L mexicana. Description: Lowest active dose regimen in Balb-C mice, L mexicana. The conditions noted are these: L mexicana prophylactic; no regimen given. It counts as in vivo.
Text: as §2
(§4) For cutaneous and mucocutaneous Leishmania species:Balb-C mice or young hamsters were infected intradermally or subcutaneously with about 10^6 to 10^7 amastigotes derived from the target organs (generally skin lesion) of an infected donor animal or from an in vitro culture of parasite forms. The animals were treated with the test compound at different dose levels (mg/kg in 100% DMSO or any other acceptable vehicle), using different routes of administration and treatment schedules. […] Drug activity was evaluated either by determination of the severity of the lesion in the relevant target tissue/organ (primary parameter) or of the parasite burdens in the relevant target tissue/organ (secondary parameter), compared to untreated control animals. The lesion size was assessed quantitatively using the method of J. El-On. and A. D. Hamburger [Trans. […]

For experiment [8], the system named is L. panamensis. Description: Lowest active dose regimen in Balb-C mice, L. panamensis. In kind it is in vivo. Particulars: L. panamensis prophylactic; no regimen given.
Text: as §2, §4

The subject of experiment [9] is L. major. Description: Lowest active dose regimen in Balb-C mice, L. major. It counts as in vivo. Particulars: L. major prophylactic; no regimen given.
Text: as §2, §4

Structures are written as SMILES. Values after ≈ are worked out from the molar mass of the structure shown.

For orientation: EC50 means the concentration needed to bring the measured effect to its halfway point. A high value points to weaker potency. Regarding `C[C@@H]1[C@H](O)[C@@H](C)/C=C/C=C/C=C/C=C/C=C/C=C/C=C/[C@H](O[C@@H]2O[C@H](C)[C@@H](O)[C@H](N)[C@@H]2O)C[C@@H]2O[C@](O)(C[C@@H](O)C[C@@H](O)[C@H](O)CC[C@@H](O)C[C@@H](O)CC(=O)O[C@H]1C)C[C@H](O)[C@H]2C(=O)O` [Ampho-B, amphothericin-B], the EC50 in the experiment with L. donovani [1] came out at 0.1 µg/mL (≈ 0.108 µM); in the experiment with L. infantum it was 0.1 µg/mL (≈ 0.108 µM); in the experiment with L. mexicana [2], 0.1 µg/mL (≈ 0.108 µM); with L. major [3], 0.2 µg/mL (≈ 0.216 µM). Besides, the skin lesion size stood at 0 mm^2 with L. mexicana [4] (week 0 post infection); 0 mm^2 in the experiment with L. mexicana [4] (week 1 post infection); 0 mm^2 in the experiment with L. mexicana [4] (week 2 post infection); 0 mm^2 in the experiment on L. mexicana [4] (week 3 post infection); 0 mm^2 in the experiment on L. mexicana [4] (week 4 post infection); 1 mm^2 in the experiment on L. mexicana [4] (week 5 post infection). The skin lesion size in the experiment with L. mexicana [4] (week 6 post infection) turned out to be 2 mm^2; in the experiment with L. mexicana [4] (week 7 post infection), 7 mm^2; with L. mexicana [4] (week 8 post infection), 13 mm^2; in the experiment on L. mexicana [4] (week 9 post infection), 34 mm^2; with L. mexicana [4] (week 10 post infection), 85 mm^2; with L. mexicana [4] (week 11 post infection) it was 101 mm^2. Besides, the skin lesion size in the experiment with L. mexicana [4] (week 12 post infection) came out at 112 mm^2; with L. major [5] (week 0 post infection), 0 mm^2; in the experiment on L. major [5] (week 1 post infection), 0 mm^2; in the experiment on L. major [5] (week 2 post infection) it was 1 mm^2; with L. major [5] (week 3 post infection), 1 mm^2; in the experiment on L. major [5] (week 4 post infection) it was 12 mm^2. Besides, the skin lesion size in the experiment on L. major [5] (week 5 post infection) worked out at 31 mm^2; in the experiment with L. major [5] (week 6 post infection), 41 mm^2; in the experiment on L. major [5] (week 7 post infection), 57 mm^2; in the experiment on L. major [5] (week 8 post infection), 95 mm^2; in the experiment with L. panamensis [6] (week 0 post infection), 0 mm^2; with L. panamensis [6] (week 1 post infection), 0 mm^2. For the same compound, the skin lesion size in the experiment on L. panamensis [6] (week 2 post infection) turned out to be 0 mm^2; in the experiment on L. panamensis [6] (week 3 post infection), 0 mm^2; with L. panamensis [6] (week 4 post infection), 1 mm^2; in the experiment on L. panamensis [6] (week 5 post infection) it was 9 mm^2; with L. panamensis [6] (week 6 post infection), 15 mm^2; with L. panamensis [6] (week 7 post infection), 30 mm^2. Also, the skin lesion size came to 30 mm^2 in the experiment with L. panamensis [6] (week 8 post infection); 42 mm^2 in the experiment on L. panamensis [6] (week 9 post infection); 42 mm^2 in the experiment with L. panamensis [6] (week 10 post infection); 43 mm^2 in the experiment with L. panamensis [6] (week 11 post infection); 39 mm^2 with L. panamensis [6] (week 12 post infection). The “Lowest active dose (LAD) regimen” value in the experiment on L. donovani [7] (L. donovani curative early), in the experiment on L. donovani [7] (L. donovani prophylactic), with L mexicana, with L. panamensis [8] and with L. major [9] was “not effective” throughout. Also, the residual activity result with L. donovani [7] (L. donovani) was “not effective”.
For the compound `CCC(C)n1ncn(-c2ccc(N3CCN(c4ccc(OCC5COC(Cn6cncn6)(c6ccc(Cl)cc6Cl)O5)cc4)CC3)cc2)c1=O` (centres unmarked) [itraconazole], the EC50 in the experiment with L. donovani [1] and in the experiment on L. infantum was more than 12.5 µg/mL each time.
